From patent US20250163379A1, “METHOD FOR DIFFERENTIATING HEMATOPOIETIC STEM/PROGENITOR CELLS INTO NK CELLS” (HEMACELL BIOTECHNOLOGY INC., priority 2022, published 2025)

Columns and labels:
[1] = system: hematopoietic stem/progenitor cells; experiment: Inducing differentiation of hematopoietic stem/progenitor cells into NK cells (CD3-CD56+); format: cell-based; conditions: GABA pathway activator in initial differentiation medium; control group 75.6%; FIG. 1
Experimental: (§1) The experiment was carried out according to the following steps: • (1) Inoculating hematopoietic stem/progenitor cells into an initial differentiation medium and culturing at 35-39° C. and 3-7%0CO2 for 5 days; • (2) Continuing culturing cells in NIK differentiation medium I for 3-5 days; • (3) Continuing culturing the cells in NK differentiation medium II; replacing half of the culture medium every 5 to 6 days for 22 to 28 days or until NK cells are obtained. • (4) Basal differentiation medium: DMEM high glucose medium, Ham's F-12Nutrient Mix, GlutaMAX™ supplement medium, heat-inactivated human AB serum, L-glutamic acid, 2-mercaptoethanol, sodium selenite, aminoethanol and L-ascorbic acid. • (5) Initial differentiation medium: basal differentiation medium, SCF (15-25 ng/mL); IL3 (3-7 ng/mL); IL7 (15-25 ng/mL); IL15 (8-12 ng/mL); Flt3-L (8-12 ng/mL); GABA pathway activator. • (6) NK differentiation medium I: basal differentiation medium; SCF (15-25 ng/mL); IL3 (3-7 ng/mL); IL7 (15-25 ng/mL); IL15 (8-12 ng/mL); Flt3-L (8-12 ng/mL). • (7) NK differentiation medium II: basal differentiation medium; SCF (15-25 ng/mL); IL15 (8-12 ng/mL); IL7 (15-25 ng/mL); Flt3-L (8-12 ng/mL).
CD3 is a marker of T cells, CD56 is a marker of NK cells, and the characterization of NK cells is CD3-CD56+. […]

[2] = system: hematopoietic stem/progenitor cells; experiment: Flow cytometry analysis of induced NK cells for cytotoxic markers (CD16, CD314, CD335, CD336); format: cell-based; conditions: for efficiency of obtaining CD16+CD56+ NK cells: control group 5.45%, FIG. 2; for efficiency of obtaining CD314+ NK cells: control group 10.1%, FIG. 3; for efficiency of obtaining CD335+ NK cells: control group 12.4%, FIG. 4; for efficiency of obtaining CD336+ NK cells: control group 35.7%, FIG. 5
Experimental: as §1
Flow cytometry analysis of induced NK cells
(1) Collection of NK cells: The cells were centrifuged at 300 g for 5 min; the supernatant was discarded, an equal volume of FACS buffer was added to wash and resuspend the cells, and the cells were centrifuged; the above steps were repeated twice; the cells were centrifuged and the supernatant was discarded, and thereafter, 125 μL of FACS buffer was added to resuspend the cells.
(2) Cell staining: 2.5 μL of labeled antibody was added to the cell suspension (volume ratio of labeled antibody:cell=1:50), the system was mixed well, and allowed to react at room temperature in the dark for 30 min; after centrifugation, the supernatant was discarded; 1 mL of FACS buffer was added to wash and resuspend the cells, the cells were centrifuged, and the above steps were repeated twice; the cells were centrifuged and the supernatant was discarded, and thereafter 250 μL of FACS buffer was added to resuspend the cells, the system was transferred to a Falcon flow tube, and placed on ice; 0.25 μL of DAPI was added before loading, the system was mixed well for later loading and detection.
(3) Preparation of single-color compensation control: The microspheres were mixed evenly by inverting vigorously at least 10 times or pulse vortexing; to each EP tube, 1 drop of UltraCompe Beads was added, then 1 μL of fluorescent antibody conjugate was added, the system was well mixed by blowing-suction with a pipette, and incubated at room temperature in the dark for 30 min; 1 mL of FACS buffer was added to each EP tube, the system was centrifuged at 400 g for 5 min at room temperature; the supernatant was sucked out carefully without removing the beads, and then 250 μL of FACS buffer was added to each test tube; the sample was mixed evenly by flicking or pulse vortexing before analysis.
(4) Detection on the flow cytometer: Before detection, the stained cells were placed on ice to prevent cell aggregation; at least 10,000 cells were tested for each sample; unstained cells were analyzed on the flow cytometer, and appropriate FSC and side scatter SSC as well as the voltage of the fluorescence detector PMT were set. […]

SMILES	efficiency of obtaining NK cells (CD3-CD56+) [1] [%]	efficiency of obtaining CD16+CD56+ NK cells [2] [%]	efficiency of obtaining CD314+ NK cells [2] [%]	efficiency of obtaining CD335+ NK cells [2] [%]	efficiency of obtaining CD336+ NK cells [2] [%]
NCCCC(=O)O [GABA, γ-aminobutyric acid]	88.3	5.86	11.0	18.2	48.2
NC/C=C/C(=O)O [TACA, trans-4-aminocrotonic acid]	87.2	9.71	18.4	21.1	48.8
